Measured values from PubChem BioAssay (NCI).
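Assay format: 96-well plates, 48-hour exposure. TGI: total growth inhibition.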

What was measured:
Assay in all cases: NCI tumour cell line growth inhibition, 48 h
TK-10 renal = system: TK-10 renal
MCF7 breast = system: MCF7 breast
MALME-3M melanoma = system: MALME-3M melanoma
ACHN renal = system: ACHN renal
SW-620 colon = system: SW-620 colon
UO-31 renal = system: UO-31 renal
RPMI-8226 leukemia = system: RPMI-8226 leukemia
OVCAR-8 ovarian = system: OVCAR-8 ovarian
LOX IMVI melanoma = system: LOX IMVI melanoma
SNB-19 CNS = system: SNB-19 CNS
HOP-62 NSCLC = system: HOP-62 NSCLC
NCI-H23 lung = system: NCI-H23 lung
HL-60(TB) leukemia = system: HL-60(TB) leukemia
MDA-MB-435 = system: MDA-MB-435
EKVX NSCLC = system: EKVX NSCLC
SR leukemia = system: SR leukemia
OVCAR-3 ovarian = system: OVCAR-3 ovarian
SK-MEL-5 melanoma = system: SK-MEL-5 melanoma
U251 CNS = system: U251 CNS
SK-MEL-2 melanoma = system: SK-MEL-2 melanoma
OVCAR-4 ovarian = system: OVCAR-4 ovarian
COLO 205 colon = system: COLO 205 colon
CCRF-CEM leukemia = system: CCRF-CEM leukemia
MOLT-4 leukemia = system: MOLT-4 leukemia
HS 578T breast = system: HS 578T breast
MDA-N = system: MDA-N
SK-MEL-28 melanoma = system: SK-MEL-28 melanoma
T-47D breast = system: T-47D breast
OVCAR-5 ovarian = system: OVCAR-5 ovarian
SF-539 CNS = system: SF-539 CNS
HT29 colon = system: HT29 colon
DU-145 prostate = system: DU-145 prostate
MDA-MB-231 breast = system: MDA-MB-231 breast
RXF 393 renal = system: RXF 393 renal
NCI/ADR-RES ovarian = system: NCI/ADR-RES ovarian
786-0 renal = system: 786-0 renal
UACC-257 melanoma = system: UACC-257 melanoma
A498 renal = system: A498 renal
NCI-H226 lung = system: NCI-H226 lung
NCI-H460 lung = system: NCI-H460 lung
SF-295 CNS = system: SF-295 CNS
HCT-116 colon = system: HCT-116 colon
A549 NSCLC = system: A549 NSCLC
KM12 colon = system: KM12 colon
CAKI-1 renal = system: CAKI-1 renal
K-562 leukemia = system: K-562 leukemia
HCC-2998 colon = system: HCC-2998 colon
UACC-62 melanoma = system: UACC-62 melanoma
BT-549 breast = system: BT-549 breast
M14 melanoma = system: M14 melanoma
HCT-15 colon = system: HCT-15 colon
SK-OV-3 ovarian = system: SK-OV-3 ovarian
NCI-H522 lung = system: NCI-H522 lung
HOP-92 NSCLC = system: HOP-92 NSCLC
SN12C renal = system: SN12C renal
SF-268 CNS = system: SF-268 CNS

Measured: TGI

CC(C)(C)OC(=O)Nc1nnc(S(N)(=O)=O)s1
> 100 µM: all assays above
